# Experimental data: PubChem BioAssay (NCI)
#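 1) Cells in 96-well plates. 2) Compound, 48 h, 5 concentrations. 3) Linear interpolation between surrounding doses. 4) Unreached endpoint = highest concentration. TGI: concentration producing complete growth inhibition.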
# Assays:
# Experiment in all cases: NCI anticancer screen, dose series, 48 h
# [1] = tested on: IGROV1 ovarian
# [2] = tested on: NCI/ADR-RES ovarian
# [3] = tested on: OVCAR-4 ovarian
# [4] = tested on: PC-3 prostate
# [5] = tested on: SK-MEL-2 melanoma
# [6] = tested on: SK-OV-3 ovarian
# [7] = tested on: UACC-62 melanoma
# [8] = tested on: UO-31 renal
Structure (SMILES),TGI [1] [µM],TGI [2] [µM],TGI [3] [µM],TGI [4] [µM],TGI [5] [µM],TGI [6] [µM],TGI [7] [µM],TGI [8] [µM]
ONC1=Nc2ccccc2C(=S)N2CSCC12 (stereo not drawn),> 100,> 100,> 100,> 100,> 100,> 100,> 100,> 100
O=C1NNC2NC(=O)C3(NN2C1=O)c1ccccc1-c1ccccc13 (stereo not drawn),> 100,> 100,> 100,> 100,> 100,> 100,> 100,> 100
CCOC(=O)c1cc(Br)c(-c2cc(C)no2)[nH]1,,> 100,63,> 100,> 100,> 100,> 100,> 100
CCOC(OCC)N1C(=O)C2(C(OCC)OCC)CC3C(OC(=O)N3N)c3cccc1c32 (stereo not drawn),> 100,> 100,> 100,,,> 100,> 100,> 100
c1ccc(C(=NCCC2CNc3ccccc32)c2ccccc2)cc1 (stereo not drawn),> 100,> 100,> 100,> 100,> 100,> 100,> 100,> 100
N=CN=CC(=S)O[C@@H]1C(=O)N2CCC[C@@]23CCCC[C@@H]13,> 12.5,> 12.5,> 12.5,> 12.5,> 12.5,> 12.5,> 12.5,> 12.5
C=C1C(=O)OC2C3C(=C)[C@@H](OC(C)=O)CC3C(C)=CC(OC(=O)C(C)(OC(C)=O)C(C)OC(C)=O)[C@@H]12 (stereo partly drawn),37.7,,32.2,32.4,27.4,> 100,27.2,30.8
CN(C(=O)C1=CCC2(CC1)OCCO2)c1ccccc1I,> 100,> 100,> 100,> 100,> 100,> 100,> 100,> 100
O=S1(=O)OCCOS(=O)(=O)C1Cc1cccc2ccccc12,28.6,54.8,47,> 100,> 100,70.7,57.2,48.8
O=C(O)CCC(N=NNc1ccc(-c2nc3ccccc3[nH]2)cc1)C(=O)O (stereo not drawn),> 100,> 100,> 100,> 100,> 100,> 100,,> 100
COc1ccc(NC(C)=O)c(C(O)CCNC(C)=O)c1 (stereo not drawn),> 100,> 100,> 100,> 100,> 100,> 100,> 100,> 100
O=C1c2c(ccc3c2CCC3)CC12Cc1ccccc1C2,> 100,> 100,> 100,> 100,47.6,> 100,,59.7
CCN(CC)c1ccc(/C=C/C(=O)c2cc(C(C)(C)C)c(O)c(C(C)(C)C)c2)cc1,> 100,26.9,> 100,> 100,> 71.5,> 100,> 100,> 100
COC(=O)C1=C(C)NC(C)=C(C(=O)OC)C1c1ccc(N=O)cc1,30.1,50.9,14.2,29.3,28.2,25.5,30,26.3
CCCCCCCCCCCCCCCCOP(=O)(O)OCC(NC(C)=O)C(=O)O (stereo not drawn),62.2,> 100,60.7,34.7,> 100,> 100,,> 100
COC(=O)[C@H]1COC(=O)N1,> 100,> 100,> 100,,> 100,> 100,> 100,> 100
O=c1c(-c2ccccc2F)coc2cc(F)ccc12,> 100,,> 100,> 100,> 100,> 100,> 100,> 100
CC(C)(C)OC(=O)NCCCC(=O)NC1(c2cc3ccccc3s2)CCCCC1,46.2,70,> 100,,,99.5,24.3,14.8
COc1cc2c(cc1OC)C(=O)C1(C2)[C@H](c2ccccc2)C2C(=O)c3cc(OC)c(OC)cc3C2[C@H]1c1ccccc1 (stereo partly drawn),> 100,> 100,> 100,> 100,,> 100,> 100,> 100
Oc1cc(N2CCCC2)ccc1/C=N/N1C(=S)N(c2ccccc2)C(=Nc2ccccc2)C1=Nc1ccccc1,> 100,> 100,,> 100,> 100,> 100,> 100,> 100
CCOc1ccccc1-c1nc2c(s1)C(=O)c1ccccc1C2=O,27.7,,35,29.6,30,28.2,13.8,25.4
Cc1ccc(OCC2OC(n3cnc4c(Cl)nc(Cl)nc43)CC2Oc2ccc(C)cc2)cc1 (stereo not drawn),4.48,4.37,4.45,6.57,5.26,35.9,4.1,
CC(=O)OCC1OC(O[C@@H]2C[C@H]3C(C)(C)[C@@H](OC(C)=O)CC[C@]3(C)[C@H]3CC[C@]45C[C@]4(CC[C@H]5[C@@H](C)C[C@@H](O)[C@H](O)C(C)(C)F)[C@@]32C)C(O)C(O)C1O (stereo partly drawn),4.45,29.6,> 100,91.5,,> 100,> 100,
O=C(NC(Cc1cnc[nH]1)C(=O)N1CCCC1)C1CCCC1 (stereo not drawn),> 100,> 100,> 100,> 100,,> 100,> 100,> 100
CSc1nc(C)c(CCOC(C)=O)c(Cl)n1,> 100,> 100,> 100,> 100,,> 100,> 100,> 100
O=C1/C(=C/c2ccc(Oc3ccccc3)cc2)N=C(c2ccccc2)N1c1ccc(S(=O)(=O)Nc2nccs2)cc1,,46.6,> 100,> 100,16.1,> 100,> 100,78.2
